# PubChem BioAssay (NCI)
#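 Exposure lasted 48 hours, with cells grown in 96-well plates and compounds tested at five concentrations. Here, GI50 denotes the concentration required for 50% inhibition of growth. The concentration for full growth arrest is given as TGI.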
# Key:
# Assay in all cases: NCI anticancer screen, dose series, 48 h
# 786-0 renal = test system: 786-0 renal
# A498 renal = test system: A498 renal
# A549 NSCLC = test system: A549 NSCLC
# ACHN renal = test system: ACHN renal
# BT-549 breast = test system: BT-549 breast
# CAKI-1 renal = test system: CAKI-1 renal
# CCRF-CEM leukemia = test system: CCRF-CEM leukemia
# COLO 205 colon = test system: COLO 205 colon
# DU-145 prostate = test system: DU-145 prostate
# HCC-2998 colon = test system: HCC-2998 colon
# HCT-116 colon = test system: HCT-116 colon
# HCT-15 colon = test system: HCT-15 colon
# HL-60(TB) leukemia = test system: HL-60(TB) leukemia
# HOP-62 NSCLC = test system: HOP-62 NSCLC
# HOP-92 NSCLC = test system: HOP-92 NSCLC
# HS 578T breast = test system: HS 578T breast
# HT29 colon = test system: HT29 colon
# IGROV1 ovarian = test system: IGROV1 ovarian
# K-562 leukemia = test system: K-562 leukemia
# KM12 colon = test system: KM12 colon
# LOX IMVI melanoma = test system: LOX IMVI melanoma
# M14 melanoma = test system: M14 melanoma
# MALME-3M melanoma = test system: MALME-3M melanoma
# MCF7 breast = test system: MCF7 breast
# MDA-MB-231 breast = test system: MDA-MB-231 breast
# MDA-MB-435 = test system: MDA-MB-435
# MOLT-4 leukemia = test system: MOLT-4 leukemia
# NCI-H226 lung = test system: NCI-H226 lung
# NCI-H23 lung = test system: NCI-H23 lung
# NCI-H460 lung = test system: NCI-H460 lung
# NCI-H522 lung = test system: NCI-H522 lung
# NCI/ADR-RES ovarian = test system: NCI/ADR-RES ovarian
# OVCAR-3 ovarian = test system: OVCAR-3 ovarian
# OVCAR-4 ovarian = test system: OVCAR-4 ovarian
# OVCAR-5 ovarian = test system: OVCAR-5 ovarian
# OVCAR-8 ovarian = test system: OVCAR-8 ovarian
# PC-3 prostate = test system: PC-3 prostate
# RPMI-8226 leukemia = test system: RPMI-8226 leukemia
# RXF 393 renal = test system: RXF 393 renal
# SF-268 CNS = test system: SF-268 CNS
# SF-295 CNS = test system: SF-295 CNS
# SF-539 CNS = test system: SF-539 CNS
# SK-MEL-2 melanoma = test system: SK-MEL-2 melanoma
# SK-MEL-28 melanoma = test system: SK-MEL-28 melanoma
# SK-MEL-5 melanoma = test system: SK-MEL-5 melanoma
# SK-OV-3 ovarian = test system: SK-OV-3 ovarian
# SN12C renal = test system: SN12C renal
# SNB-19 CNS = test system: SNB-19 CNS
# SNB-75 CNS = test system: SNB-75 CNS
# SW-620 colon = test system: SW-620 colon
# T-47D breast = test system: T-47D breast
# TK-10 renal = test system: TK-10 renal
# U251 CNS = test system: U251 CNS
# UACC-257 melanoma = test system: UACC-257 melanoma
# UACC-62 melanoma = test system: UACC-62 melanoma
# UO-31 renal = test system: UO-31 renal
structure (smiles),measurement,setting,value
O=C1/C(=C\c2ccc(Cl)cc2)CN(C(=S)Nc2ccccc2)C/C1=C\c1ccc(Cl)cc1,GI50,786-0 renal,0.351 µM
same,TGI,786-0 renal,1.23 µM
same,GI50,A498 renal,1.66 µM
same,TGI,A498 renal,3.15 µM
same,GI50,A549 NSCLC,0.415 µM
same,TGI,A549 NSCLC,10.3 µM
same,GI50,ACHN renal,1.22 µM
same,TGI,ACHN renal,2.65 µM
same,GI50,BT-549 breast,0.6 µM
same,TGI,BT-549 breast,1.77 µM
same,GI50,CAKI-1 renal,2.56 µM
same,TGI,CAKI-1 renal,> 29.2 µM
same,GI50,CCRF-CEM leukemia,0.453 µM
same,TGI,CCRF-CEM leukemia,13.2 µM
same,GI50,COLO 205 colon,0.507 µM
same,TGI,COLO 205 colon,1.84 µM
same,GI50,DU-145 prostate,1.11 µM
same,TGI,DU-145 prostate,3.48 µM
same,GI50,HCC-2998 colon,0.755 µM
same,TGI,HCC-2998 colon,1.94 µM
same,GI50,HCT-116 colon,0.213 µM
same,TGI,HCT-116 colon,0.438 µM
same,GI50,HCT-15 colon,0.283 µM
same,TGI,HCT-15 colon,3.27 µM
same,GI50,HL-60(TB) leukemia,1.62 µM
same,TGI,HL-60(TB) leukemia,7.85 µM
same,GI50,HOP-62 NSCLC,0.269 µM
same,TGI,HOP-62 NSCLC,0.696 µM
same,GI50,HOP-92 NSCLC,1.85 µM
same,TGI,HOP-92 NSCLC,4.83 µM
same,GI50,HS 578T breast,3 µM
same,TGI,HS 578T breast,23.3 µM
same,GI50,HT29 colon,0.277 µM
same,TGI,HT29 colon,0.719 µM
same,GI50,IGROV1 ovarian,0.953 µM
same,TGI,IGROV1 ovarian,2.87 µM
same,GI50,K-562 leukemia,0.356 µM
same,TGI,K-562 leukemia,7.67 µM
same,GI50,KM12 colon,0.261 µM
same,TGI,KM12 colon,0.645 µM
same,GI50,LOX IMVI melanoma,0.203 µM
same,TGI,LOX IMVI melanoma,0.432 µM
same,GI50,M14 melanoma,1.7 µM
same,TGI,M14 melanoma,4.2 µM
same,GI50,MALME-3M melanoma,2.22 µM
same,TGI,MALME-3M melanoma,4.86 µM
same,GI50,MCF7 breast,0.292 µM
same,TGI,MCF7 breast,1.15 µM
same,GI50,MDA-MB-231 breast,0.735 µM
same,TGI,MDA-MB-231 breast,5.44 µM
same,GI50,MDA-MB-435,1.09 µM
same,TGI,MDA-MB-435,3.01 µM
same,GI50,MOLT-4 leukemia,1.74 µM
same,TGI,MOLT-4 leukemia,13.7 µM
same,GI50,NCI-H226 lung,1.64 µM
same,TGI,NCI-H226 lung,4.58 µM
same,GI50,NCI-H23 lung,1.3 µM
same,TGI,NCI-H23 lung,3.92 µM
same,GI50,NCI-H460 lung,0.471 µM
same,TGI,NCI-H460 lung,2.15 µM
same,GI50,NCI-H522 lung,1.82 µM
same,TGI,NCI-H522 lung,3.84 µM
same,GI50,NCI/ADR-RES ovarian,2.54 µM
same,TGI,NCI/ADR-RES ovarian,18.4 µM
same,GI50,OVCAR-3 ovarian,0.437 µM
same,TGI,OVCAR-3 ovarian,1.49 µM
same,GI50,OVCAR-4 ovarian,0.343 µM
same,TGI,OVCAR-4 ovarian,2.77 µM
same,GI50,OVCAR-5 ovarian,1.47 µM
same,TGI,OVCAR-5 ovarian,3.49 µM
same,GI50,OVCAR-8 ovarian,0.527 µM
same,TGI,OVCAR-8 ovarian,> 47.9 µM
same,GI50,PC-3 prostate,0.371 µM
same,TGI,PC-3 prostate,2.09 µM
same,GI50,RPMI-8226 leukemia,0.136 µM
same,TGI,RPMI-8226 leukemia,0.646 µM
same,GI50,RXF 393 renal,0.397 µM
same,TGI,RXF 393 renal,1.13 µM
same,GI50,SF-268 CNS,0.754 µM
same,TGI,SF-268 CNS,2.26 µM
same,GI50,SF-295 CNS,0.389 µM
same,TGI,SF-295 CNS,1.73 µM
same,GI50,SF-539 CNS,0.427 µM
same,TGI,SF-539 CNS,1.54 µM
same,GI50,SK-MEL-2 melanoma,2.57 µM
same,TGI,SK-MEL-2 melanoma,5.8 µM
same,GI50,SK-MEL-28 melanoma,1.79 µM
same,TGI,SK-MEL-28 melanoma,3.39 µM
same,GI50,SK-MEL-5 melanoma,1.66 µM
same,TGI,SK-MEL-5 melanoma,3.12 µM
same,GI50,SK-OV-3 ovarian,2.03 µM
same,TGI,SK-OV-3 ovarian,4.86 µM
same,GI50,SN12C renal,0.544 µM
same,TGI,SN12C renal,1.89 µM
same,GI50,SNB-19 CNS,0.661 µM
same,TGI,SNB-19 CNS,1.95 µM
same,GI50,SNB-75 CNS,1.25 µM
same,TGI,SNB-75 CNS,3.82 µM
same,GI50,SW-620 colon,0.298 µM
same,TGI,SW-620 colon,1.04 µM
same,GI50,T-47D breast,1.1 µM
same,TGI,T-47D breast,3.61 µM
same,GI50,TK-10 renal,1.96 µM
same,TGI,TK-10 renal,4.48 µM
same,GI50,U251 CNS,0.212 µM
same,TGI,U251 CNS,0.484 µM
same,GI50,UACC-257 melanoma,1.83 µM
same,TGI,UACC-257 melanoma,3.78 µM
same,GI50,UACC-62 melanoma,1.2 µM
same,TGI,UACC-62 melanoma,2.92 µM
same,GI50,UO-31 renal,1.21 µM
same,TGI,UO-31 renal,2.56 µM
